Assays:
[1] = target: ROCK-II (h) (Homo sapiens, UniProt O75116); test: ROCK-II (h) radiometric kinase assay; format: biochemical; conditions: read-out: IC50 anti-ROCK-II activity
Protocol: In a final reaction volume of 25 μl, ROCK-II (h) (5-10 mU) is incubated with 50 mM Tris pH 7.5, 0.1 mM EGTA, 30 μM […], 10 mM MgAcetate and [γ-^33P-ATP] (specific activity approx. 500 cpm/pmol, concentration as required). The reaction is initiated by the addition of the MgATP mix. After incubation for 40 minutes at room temperature, the reaction is stopped by the addition of 5 μl of a 3% phosphoric acid solution. 10 μl of the reaction is then spotted onto a P30 filtermat and washed three times for 5 minutes in 75 mM phosphoric acid and once in methanol prior to drying and scintillation counting.
The compound of example 29 was tested for anti-ROCK-II activity (assay as described above): […]

[2] = tested on: MM1 cells; conditions: continuous delivery using osmotic pumps, syngeneic rats; cited from earlier work
[3] = tested on: rat MM1 hepatoma cells; conditions: cited from earlier work
[4] = tested on: isolated rabbit urinary bladder smooth muscle; conditions: cited from earlier work

Sequence of ROCK-II (h) (O75116 whole entry): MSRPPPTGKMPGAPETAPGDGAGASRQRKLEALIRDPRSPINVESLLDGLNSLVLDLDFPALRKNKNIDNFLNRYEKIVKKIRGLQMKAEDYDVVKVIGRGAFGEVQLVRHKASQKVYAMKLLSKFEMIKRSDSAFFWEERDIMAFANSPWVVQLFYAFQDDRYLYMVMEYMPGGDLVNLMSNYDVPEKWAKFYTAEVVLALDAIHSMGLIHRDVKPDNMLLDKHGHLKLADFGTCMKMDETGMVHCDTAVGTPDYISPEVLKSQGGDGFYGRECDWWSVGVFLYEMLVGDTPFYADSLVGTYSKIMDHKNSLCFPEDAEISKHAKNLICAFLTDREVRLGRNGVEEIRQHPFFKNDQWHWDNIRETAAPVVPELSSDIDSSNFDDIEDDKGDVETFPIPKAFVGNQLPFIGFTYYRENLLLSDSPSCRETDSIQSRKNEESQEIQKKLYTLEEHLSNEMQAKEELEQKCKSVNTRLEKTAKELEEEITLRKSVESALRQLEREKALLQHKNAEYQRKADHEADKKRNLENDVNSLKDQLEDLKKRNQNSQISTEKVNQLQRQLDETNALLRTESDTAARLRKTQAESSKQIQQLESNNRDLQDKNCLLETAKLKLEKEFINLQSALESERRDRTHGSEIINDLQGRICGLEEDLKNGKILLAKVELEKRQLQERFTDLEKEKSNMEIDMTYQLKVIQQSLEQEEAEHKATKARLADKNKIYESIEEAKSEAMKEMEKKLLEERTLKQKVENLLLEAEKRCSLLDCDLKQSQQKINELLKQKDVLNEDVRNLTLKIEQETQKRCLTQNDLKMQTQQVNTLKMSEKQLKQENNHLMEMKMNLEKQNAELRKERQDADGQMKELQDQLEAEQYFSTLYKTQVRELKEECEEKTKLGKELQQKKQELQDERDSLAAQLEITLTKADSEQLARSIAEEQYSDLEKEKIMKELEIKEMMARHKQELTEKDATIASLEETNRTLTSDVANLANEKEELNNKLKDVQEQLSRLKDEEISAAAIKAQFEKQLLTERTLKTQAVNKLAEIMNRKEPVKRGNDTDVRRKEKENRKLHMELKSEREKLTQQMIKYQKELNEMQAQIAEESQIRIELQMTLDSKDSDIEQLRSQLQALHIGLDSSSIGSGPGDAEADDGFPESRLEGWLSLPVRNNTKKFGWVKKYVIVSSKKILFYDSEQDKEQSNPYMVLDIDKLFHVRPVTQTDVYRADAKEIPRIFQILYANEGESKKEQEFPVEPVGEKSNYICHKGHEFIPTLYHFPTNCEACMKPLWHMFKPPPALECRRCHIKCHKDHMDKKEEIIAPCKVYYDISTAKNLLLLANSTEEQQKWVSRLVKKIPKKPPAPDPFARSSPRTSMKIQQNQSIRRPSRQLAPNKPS

Row | IC50 [1] [nM] | SMILES | dissemination of MM1 cells [2] | Rho-mediated activation of actomyosin [3] | invasive activity [3] | bethanechol-evoked contractions [4]
1 | < 100 | NC(c1ccc(Cl)cc1)C1CCN(c2ccnc3[nH]ccc23)CC1 (centres unmarked) [Example 29, C-(4-Chlorophenyl)-C-[1-(1H-pyrrolo[2,3-b]pyridin-4-yl)piperidin-4-yl]methylamine] |  |  |  | 
2 |  | C[C@@H](N)[C@H]1CC[C@H](C(=O)Nc2ccncc2)CC1 [Example Y-27632] | considerably reduced | blocked | blocked | attenuates
